Results reported in ChEMBL document CHEMBL5390310, “Rapid PROTAC Discovery Platform: Nanomole-Scale Array Synthesis and Direct Screening of Reaction Mixtures” (ACS Med Chem Lett, 2023).
The source made the active and inactive calls. No cut-off for these calls is given here.

Tests used:
[1] = tested on: HEK293; experiment: Cytotoxicity against HEK293 cells assessed as cell viability by CellTiter-Glo based assay; format: toxicity; settings: human
[2] = target: T1, von Hippel-Lindau disease tumor suppressor/Bromodomain-containing protein 4 (Homo sapiens, UniProt O60885+P40337); experiment: Protac activity at VHL E3 ligase/BRD4 in HEK293 cells assessed as BRD4 degradation by HiBiT assay relative to control; format: cell-based
T1 sequence (P40337 whole entry, looked up, other chains not shown): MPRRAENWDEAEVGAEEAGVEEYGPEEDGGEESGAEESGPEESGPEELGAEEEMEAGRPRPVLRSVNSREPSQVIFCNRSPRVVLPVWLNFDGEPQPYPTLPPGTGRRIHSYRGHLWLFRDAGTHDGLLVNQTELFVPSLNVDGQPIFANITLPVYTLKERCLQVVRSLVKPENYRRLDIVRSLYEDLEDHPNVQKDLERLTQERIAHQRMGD

[3] = target: T1, von Hippel-Lindau disease tumor suppressor/Bromodomain-containing protein 4; experiment: Protac activity at VHL E3 ligase/BRD4 in HEK293 cells assessed as BRD4 degradation by HiBiT assay; format: cell-based

Activity [2] [%]	Activity [3]	SMILES	Activity [1]
–	–	Cc1sc2c(c1C)C(c1ccc(Cl)cc1)=N[C@@H](CC(=O)O)c1nnc(C)n1-2	Non-Toxic
–	–	Cc1sc2c(c1C)C(c1ccc(Cl)cc1)=N[C@@H](CC(=O)NCCCCCC(=O)O)c1nnc(C)n1-2	Non-Toxic
25	Active	Cc1ncsc1-c1ccc(CNC(=O)[C@@H]2C[C@@H](O)CN2C(=O)[C@@H](NC(=O)COCCOCCOCCNC(=O)C[C@@H]2N=C(c3ccc(Cl)cc3)c3c(sc(C)c3C)-n3c(C)nnc32)C(C)(C)C)cc1	Non-Toxic
